Reference: article PMC11672137, “High-Affinity Lectin Ligands Enable the Detection of Pathogenic Pseudomonas aeruginosa Biofilms: Implications for Diagnostics and Therapy” (JACS Au, 2024)

How the values were obtained:
LecA [1] = biological target: T1, LecA (Pseudomonas aeruginosa, UniProt Q05097); details: read-out: Kd by ITC; cited from earlier work
T1 construct: made in house

[2] = test system: P. aeruginosa PAO1 biofilms; experiment: In vitro biofilm staining under flow conditions, injection method; format: cell-based, Pseudomonas aeruginosa; details: 17 μM in channel, 10 min incubation, then flow 3 mL/h for 10-20 min
Protocol: (§1) P. aeruginosa biofilms were grown under flow conditions and observed by fluorescence microscopy in analogy to Ghanbari et al.[66] To this end, P. aeruginosa PAO1 expressing the red fluorescent protein mCherry[56] was diluted to an OD600 nm of 0.1 and injected into the microfluidics device. After a 30-min settling period, biofilms were grown under a constant laminar flow rate of 3 mL/h per channel. Following 48 h of incubation at 30 °C, dense and mature P. aeruginosa PAO1 biofilms were observed, which were then further used for analysis of the imaging probes.
Two different staining methods were evaluated for the imaging of P. aeruginosa PAO1 biofilms: (I) direct injection of the imaging compounds into the flow system or (II) compound supplementation into the medium and gradual accumulation at the biofilm (Figure S18). […] The flow of compounds 17 and 24 and their arrival in the flow cells were monitored using a fluorescence microscope attached to the flow system. […]
Figure 4 Staining of P. aeruginosa PAO1 biofilms under flow following the injection method. […] Pictures of the same aggregates were recorded prior to compound injection (t−10), during a 10 min incubation period without flow (t0) and during the wash period (constant flow, 3 mL/h) at different time points t5, t10, t15, and t20 (5, 10, 15, and 20 min) using a fluorescence microscope. […]

[3] = test system: P. aeruginosa PAO1 biofilms; experiment: In vitro biofilm staining under flow conditions, compound supplementation to the medium; format: cell-based, Pseudomonas aeruginosa; details: 500 nM in medium, 4 h, 3 mL/h, fluorescence microscope
Protocol: as §1
To circumvent these technical drawbacks, the addition of compounds to the medium reservoir and retention at the biofilm was pursued. Imaging compounds were added to the medium reservoirs at a concentration of 500 nM, which were continuously pumped (3 mL/h) through the flow cell for 4 h. Compound accumulation at mature P. aeruginosa biofilms was immediately analyzed using fluorescence microscopy. Afterwards, the medium was exchanged, and the biofilms were washed for 30 min (3 mL/h, no compound) to monitor the retention (Figure 5). Furthermore, an analysis using CLSM was also performed after 4 h of accumulation without washing (Figures 5 and S22).
Figure 5 Staining of P. aeruginosa PAO1 biofilms grown under flow conditions with compound supplementation to the medium. Biofilm staining with (A) fluorescein divalent probe 17, (B) fluorescein control 24, (C) BODIPY divalent probe 19, and (D) BDP FL azide control 18 was monitored after 4 h of accumulation under constant flow (3 mL/h) of LB media containing 500 nM of respective compound. Retention of imaging compounds is shown after a subsequent wash period for 30 min with medium (3 mL/h, no compound). Images were recorded by using a fluorescence microscope. CLSM was performed for (E) BODIPY divalent probe 19 and the control (F) BDP FL azide 18 after 4 h of accumulation. Green signal originates from fluorescently labeled probes 17 and 19 and controls 24 and 18. P. aeruginosa constitutively expressing mCherry from pMP7605^56 is shown in red. Z-Stack size, 2 μm. Scale bar = 50 μm.
In vitro biofilm staining under flow conditions
The flow cell experiment was set up in analogy to Ghanbari et al. and in this study, optimized and established for biofilm staining.25 In principle, the experiment is based on an inlet connected to a medium source, a peristaltic pump providing constant medium flow, a flow chamber enabling analysis of bacterial growth and an outlet (waste container/bottle).
The medium used in the flow system was LB diluted by factor 5 containing 60 µg/mL
Gm. Silicone tubings 1.6 mm (ibidi, Germany) were used transporting medium from inlet to the peristaltic pump (Watson-Marlow Fluid Technology Solutions). Stopper hoses (CarlRoth) placed in peristaltic pump were coupled to silicone tubes via connectors (ibidi, Germany).
Stopper hoses are connected to bubble traps (obtained by Claus Sternberg, DTU Copenhagen) via 0.8 mm silicone tubing (ibidi, Germany). Bubble traps were used to remove air from the medium flow and to avoid biofilm disruption. Downstream from the bubble traps, the flow cell (μ-Slide VI 0.4 ibiTreat, ibidi, Germany) was placed into the system and connected to 1.6 mm silicone tubes (ibidi, Germany). The outlet is leading the medium from flow chamber to a waste […]
In order to inoculate the flow cell with P. aeruginosa PAO1 mCherry (pMP7605)23 the silicone tubes upstream and downstream of the flow chamber were pinched off by using commercial plastic clamps. The medium flow was stopped and the flow cell was inoculated by injecting 300 µL of the bacterial suspension (OD600nm of 0.1) into the silicone tubing upstream of the flow chamber. For this, a cannula (0.30 x 12 mm, Sterican) was used. The injection point was sealed with silicone glue. After bacterial settling time of 30 min, the flow was started again and clamps were removed. Growth temperature was regulated by using a heat system (ibidi, […]
Germany). […]

LecA [4] = biological target: T1, LecA; experiment: Competitive binding assay based on fluorescence polarization, LecA; details: LecA 20 µM, reporter ligand S38, 2% DMSO; read-out: IC50 (competitive binding, FP)
Protocol: Next, binding of the optimized divalent ligand 17 and its synthetic precursor 16 to LecA was evaluated by fluorescence polarization-based (FP) assays,[47] SPR, and ITC. […] Therefore, fluorescent ligand 17 was analyzed in a direct binding experiment by FP. […] The dissociation constants for 16 were 47.2 ± 11.3 nM (ITC) and 47.8 ± 44.1 nM (steady-state SPR), while for 17, the values were 64.1 ± 31.1 nM and 79.3 ± 24.9 nM (steady-state SPR). For the SPR experiments, Kd was also determined by single-cycle kinetic analysis resulting in approximately five times higher affinity, but the data have limited reliability due to suboptimal fit for the kinetic curves (Figures S13B and S14).[58]−[60] […]
137 mM NaCl, 2.6 mM KCl at pH 7.4 supplemented with 1 mM CaCl2). Protein concentration was determined by UV spectroscopy at 280 nm using a molar extinction coefficient of 27 960 M-1 cm-1 for LecA and 6 990 M-1 cm-1 for LecB.
All synthesized alkyne precursors (S5m, S5p, S6m, S6p, S11, 25, S16, S22 and S24) were analysed in the previously established competitive binding assays based on fluorescence polarization (Figure S2).18,19 Galactose-based compounds (S5m, S5p, S6m, S6p, S11) were evaluated against LecA and C-glycoside-based compounds […] and S16 against LecB. […]
PheraStar FS plate reader (BMG Labtech GmbH, Germany) with excitation filters at 485 nm and emission filters at 535 nm. […]

LecB = biological target: T2, LecB (Pseudomonas aeruginosa, UniProt Q9HYN5); experiment: Competitive binding assay based on fluorescence polarization, LecB
T2 construct: made in house
T2 sequence (Q9HYN5 entry or part of it): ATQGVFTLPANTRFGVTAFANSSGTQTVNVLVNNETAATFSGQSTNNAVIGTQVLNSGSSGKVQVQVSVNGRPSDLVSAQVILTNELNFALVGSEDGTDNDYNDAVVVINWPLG
Protocol: LecA competitive binding assay was performed in presence of 2% DMSO, whereas LecB competitive binding assay had less than 0.5% DMSO present. In short, the compound dilution series were prepared in 96 well plates. 10 µL of each dilution in triplicates were mixed with 10 µL of master mix (40 µM LecA, 20 nM galactose-fluorescein reporter ligand S38 or 300 nM LecB and 20 nM S39 in TBS/Ca2+ buffer, Figure S3) in 384-well microtiter plates (Greiner Bio-One, Germany, cat no 781900). The plates were centrifuged (1 min, 500 g), sealed (EASYseal, Greiner Bio-One, cat no 676001) and incubated for 1 h in case of LecA and 6 h in case of LecB in a dark wet chamber under gentle shaking. Fluorescence was measured on a
PheraStar FS plate reader (BMG Labtech GmbH, Germany) with excitation filters at 485 nm and emission filters at 535 nm. The measured intensities were reduced by the blank values (protein in TBS/Ca2+ buffer) and analysed with MARS Data Analysis Software (BMG Labtech GmbH, Germany). IC50 values were determined by the four-parameter variable slope model with the minimum and maximum limits of the fit fixed according to the controls in each assay

T1 sequence (Q05097 whole entry): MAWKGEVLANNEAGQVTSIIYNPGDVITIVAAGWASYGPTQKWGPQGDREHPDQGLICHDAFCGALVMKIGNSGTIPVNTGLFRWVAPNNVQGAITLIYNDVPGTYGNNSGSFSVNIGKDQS

In the case of OC[C@H]1O[C@@H](Oc2ccccc2)[C@H](O)[C@@H](O)[C@H]1O [compound 1, phenyl β-D-galactoside], the Kd (LecA [1]) is given as 8.8 µM.
With O=C1OC2(c3ccc(O)cc3Oc3cc(O)ccc32)c2ccccc21 [compound 24, fluorescein, reference compound] the “Retention of fluorescence at biofilm during wash” value [2] was “completely disappeared after 10 min” and the “Biofilm staining after accumulation” value [3] was “did not result in any observable staining”.
O=[N+]([O-])c1ccc(O[C@@H]2O[C@H](CO)[C@H](O)[C@H](O)[C@H]2O)cc1 [para-nitrophenyl β-D-galactoside] gave an IC50 (LecA [4]) of 39.7 ± 11.5 µM.
C#Cc1ccc(S(=O)(=O)NC[C@H]2O[C@@H](C)[C@@H](O)[C@@H](O)[C@@H]2O)s1 [compound 23] showed an IC50 (LecB) of 2.4 ± 0.5 µM.
